According to BigSolDB 2.1:

O=c1cc(-c2ccc(O)c(O)c2)oc2cc(O)cc(O)c12
solubility (mole fraction)
Conditions | 273.2 K | 283.2 K | 293.2 K | 303.2 K | 313.2 K | 323.2 K
in ethanol | 0.000755 | 0.00117 | 0.00174 | 0.00205 | 0.00271 | 0.00318
in water | 2.06e-07 | 2.72e-07 | 3.49e-07 | 4.68e-07 | 7.3e-07 | 9.48e-07
